Tests used:
Experiment in all cases: relative viability (nuclei count vs DMSO), 5 days (fraction); higher = more cells survive
[1] = compound: CC(C)(C)c1cc(NC(=O)Nc2ccc(-c3cn4c(n3)sc3cc(OCCN5CCOCC5)ccc34)cc2)no1 [Quizartinib] + COc1cc2c(Oc3ccc(NC(=O)C4(C(=O)Nc5ccc(F)cc5)CC4)cc3F)ccnc2cc1OCCCN1CCOCC1 [Foretinib] (partner 0.25 µM)
Procedure, shortened: (§1)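 One day after seeding in 1536-well plates, lung cancer cell lines were dosed by pin tool. Dosing was either single-drug or a fixed anchor-drug dose plus five library-drug doses (not always all listed) in √10 steps. After 5 days, nuclei were stained in one fix-and-stain step and counted on 4× images, and relative viability is the nuclei count of treated wells over that of vehicle wells, given as the median of duplicate plates.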

[2] = compound: CC(C)(C)c1cc(NC(=O)Nc2ccc(-c3cn4c(n3)sc3cc(OCCN5CCOCC5)ccc34)cc2)no1 [Quizartinib] + CS(=O)(=O)CCNCc1ccc(-c2ccc3ncnc(Nc4ccc(OCc5cccc(F)c5)c(Cl)c4)c3c2)o1 [Lapatinib] (partner 2 µM)
Procedure, shortened: as §1

[3] = compound: COCC[n+]1c2c(n(Cc3cnccn3)c1C)C(=O)c1ccccc1C2=O [YM155] + COc1cccc2cc(-c3nc([C@H]4CC[C@H](C(=O)O)CC4)n4ncnc(N)c34)[nH]c12 [OSI-027] (partner 0.5 µM)
Procedure, shortened: as §1

[4] = compound: COCC[n+]1c2c(n(Cc3cnccn3)c1C)C(=O)c1ccccc1C2=O [YM155] + NC(=O)Nc1cc(-c2cccc(F)c2)sc1C(=O)N[C@H]1CCCNC1 [AZD7762] (partner 0.2 µM)
Procedure, shortened: as §1

NCI-H1650
relative viability ([1]; first compound 0.001 µM): 0.549 | relative viability ([1]; first compound 0.003162 µM): 1.11 | relative viability ([1]; first compound 0.01 µM): 1.35 | relative viability ([1]; first compound 0.1 µM): 1.03 | relative viability ([2]; first compound 0.001 µM): 0.189 | relative viability ([2]; first compound 0.003162 µM): 0.782 | relative viability ([2]; first compound 0.01 µM): 0.579 | relative viability ([2]; first compound 0.1 µM): 0.686 | relative viability ([3]; first compound 0.002 µM): 0.677 | relative viability ([3]; first compound 0.006325 µM): 0.783 | relative viability ([3]; first compound 0.02 µM): 0.594 | relative viability ([3]; first compound 0.06325 µM): 0.613

NCI-H1703
relative viability ([1]; first compound 0.001 µM): 0.514 | relative viability ([1]; first compound 0.003162 µM): 0.35 | relative viability ([1]; first compound 0.01 µM): 0.371 | relative viability ([1]; first compound 0.03162 µM): 0.406 | relative viability ([1]; first compound 0.1 µM): 0.282 | relative viability ([2]; first compound 0.001 µM): 1.18 | relative viability ([2]; first compound 0.003162 µM): 0.432 | relative viability ([2]; first compound 0.01 µM): 0.379 | relative viability ([2]; first compound 0.03162 µM): 0.216 | relative viability ([2]; first compound 0.1 µM): 0.315 | relative viability ([4]; first compound 0.002 µM): 0.0937 | relative viability ([4]; first compound 0.006325 µM): 0.114 | relative viability ([4]; first compound 0.02 µM): 0.138 | relative viability ([4]; first compound 0.06325 µM): 0.132

NCI-H1792
relative viability ([2]; first compound 0.001 µM): 0.796 | relative viability ([2]; first compound 0.003162 µM): 0.853 | relative viability ([2]; first compound 0.01 µM): 0.969 | relative viability ([2]; first compound 0.03162 µM): 0.866 | relative viability ([2]; first compound 0.1 µM): 0.932 | relative viability ([3]; first compound 0.002 µM): 0.743 | relative viability ([3]; first compound 0.006325 µM): 0.889 | relative viability ([3]; first compound 0.02 µM): 0.677 | relative viability ([3]; first compound 0.06325 µM): 0.83 | relative viability ([4]; first compound 0.002 µM): 0.613 | relative viability ([4]; first compound 0.006325 µM): 0.574 | relative viability ([4]; first compound 0.02 µM): 0.648 | relative viability ([4]; first compound 0.06325 µM): 0.604

NCI-H2009
relative viability ([1]; first compound 0.001 µM): 1.24 | relative viability ([1]; first compound 0.003162 µM): 1.17 | relative viability ([1]; first compound 0.01 µM): 1.29 | relative viability ([1]; first compound 0.03162 µM): 1.17 | relative viability ([1]; first compound 0.1 µM): 1.21 | relative viability ([2]; first compound 0.001 µM): 0.141 | relative viability ([2]; first compound 0.003162 µM): 0.865 | relative viability ([2]; first compound 0.01 µM): 0.884 | relative viability ([2]; first compound 0.03162 µM): 0.695 | relative viability ([2]; first compound 0.1 µM): 0.93 | relative viability ([3]; first compound 0.002 µM): 0.567 | relative viability ([3]; first compound 0.006325 µM): 0.604 | relative viability ([3]; first compound 0.02 µM): 0.647 | relative viability ([3]; first compound 0.06325 µM): 0.382

NCI-H2023
relative viability ([1]; first compound 0.001 µM): 0.788 | relative viability ([1]; first compound 0.003162 µM): 0.752 | relative viability ([1]; first compound 0.01 µM): 0.869 | relative viability ([1]; first compound 0.1 µM): 0.742 | relative viability ([2]; first compound 0.001 µM): 0.0985 | relative viability ([2]; first compound 0.003162 µM): 0.819 | relative viability ([2]; first compound 0.01 µM): 0.737 | relative viability ([2]; first compound 0.03162 µM): 0.293 | relative viability ([2]; first compound 0.1 µM): 0.846 | relative viability ([3]; first compound 0.002 µM): 0.442 | relative viability ([3]; first compound 0.006325 µM): 0.455 | relative viability ([3]; first compound 0.02 µM): 0.403 | relative viability ([3]; first compound 0.06325 µM): 0.195

NCI-H2228
relative viability ([1]; first compound 0.001 µM): 0.927 | relative viability ([1]; first compound 0.003162 µM): 0.954 | relative viability ([1]; first compound 0.01 µM): 1.01 | relative viability ([1]; first compound 0.03162 µM): 0.715 | relative viability ([1]; first compound 0.1 µM): 1.02 | relative viability ([2]; first compound 0.001 µM): 1.11 | relative viability ([2]; first compound 0.003162 µM): 1.1 | relative viability ([2]; first compound 0.01 µM): 1.47 | relative viability ([2]; first compound 0.03162 µM): 0.764 | relative viability ([2]; first compound 0.1 µM): 1 | relative viability ([3]; first compound 0.002 µM): 0.612 | relative viability ([3]; first compound 0.006325 µM): 0.689 | relative viability ([3]; first compound 0.02 µM): 0.605 | relative viability ([3]; first compound 0.06325 µM): 0.713

NCI-H2342
relative viability ([1]; first compound 0.001 µM): 0.965 | relative viability ([1]; first compound 0.003162 µM): 0.938 | relative viability ([1]; first compound 0.01 µM): 1.11 | relative viability ([1]; first compound 0.03162 µM): 1 | relative viability ([1]; first compound 0.1 µM): 0.988 | relative viability ([3]; first compound 0.002 µM): 0.555 | relative viability ([3]; first compound 0.006325 µM): 0.701 | relative viability ([3]; first compound 0.02 µM): 0.666 | relative viability ([3]; first compound 0.06325 µM): 0.623 | relative viability ([4]; first compound 0.002 µM): 0.612 | relative viability ([4]; first compound 0.006325 µM): 0.379 | relative viability ([4]; first compound 0.02 µM): 0.515 | relative viability ([4]; first compound 0.06325 µM): 0.383

SK-LU-1
relative viability ([1]; first compound 0.001 µM): 0.779 | relative viability ([1]; first compound 0.003162 µM): 0.76 | relative viability ([1]; first compound 0.01 µM): 0.943 | relative viability ([1]; first compound 0.03162 µM): 0.83 | relative viability ([1]; first compound 0.1 µM): 0.985 | relative viability ([2]; first compound 0.001 µM): 0.704 | relative viability ([2]; first compound 0.003162 µM): 0.867 | relative viability ([2]; first compound 0.01 µM): 1.3 | relative viability ([2]; first compound 0.03162 µM): 0.774 | relative viability ([2]; first compound 0.1 µM): 0.725 | relative viability ([3]; first compound 0.002 µM): 0.358 | relative viability ([3]; first compound 0.006325 µM): 0.316 | relative viability ([3]; first compound 0.02 µM): 0.396 | relative viability ([3]; first compound 0.06325 µM): 0.348

SK-MES-1
relative viability ([1]; first compound 0.001 µM): 0.789 | relative viability ([1]; first compound 0.003162 µM): 0.901 | relative viability ([1]; first compound 0.01 µM): 0.972 | relative viability ([1]; first compound 0.03162 µM): 0.925 | relative viability ([1]; first compound 0.1 µM): 0.939 | relative viability ([2]; first compound 0.001 µM): 0.464 | relative viability ([2]; first compound 0.003162 µM): 0.428 | relative viability ([2]; first compound 0.01 µM): 0.421 | relative viability ([2]; first compound 0.03162 µM): 0.428 | relative viability ([2]; first compound 0.1 µM): 0.442 | relative viability ([3]; first compound 0.002 µM): 0.582 | relative viability ([3]; first compound 0.006325 µM): 0.712 | relative viability ([3]; first compound 0.02 µM): 0.628 | relative viability ([3]; first compound 0.06325 µM): 0.19

SW 900
relative viability ([1]; first compound 0.001 µM): 0.802 | relative viability ([1]; first compound 0.003162 µM): 0.85 | relative viability ([1]; first compound 0.03162 µM): 0.882 | relative viability ([1]; first compound 0.1 µM): 0.836 | relative viability ([3]; first compound 0.002 µM): 0.544 | relative viability ([3]; first compound 0.006325 µM): 0.501 | relative viability ([3]; first compound 0.02 µM): 0.557 | relative viability ([3]; first compound 0.06325 µM): 0.478 | relative viability ([4]; first compound 0.006325 µM): 0.543 | relative viability ([4]; first compound 0.02 µM): 0.825 | relative viability ([4]; first compound 0.06325 µM): 0.64

SW 1573
relative viability ([1]; first compound 0.001 µM): 0.946 | relative viability ([1]; first compound 0.003162 µM): 0.886 | relative viability ([1]; first compound 0.01 µM): 0.896 | relative viability ([1]; first compound 0.03162 µM): 1.02 | relative viability ([1]; first compound 0.1 µM): 1.04 | relative viability ([2]; first compound 0.001 µM): 1.03 | relative viability ([2]; first compound 0.003162 µM): 1.09 | relative viability ([2]; first compound 0.01 µM): 1.24 | relative viability ([2]; first compound 0.03162 µM): 1.01 | relative viability ([2]; first compound 0.1 µM): 1.21 | relative viability ([3]; first compound 0.002 µM): 0.549 | relative viability ([3]; first compound 0.006325 µM): 0.705 | relative viability ([3]; first compound 0.02 µM): 0.406 | relative viability ([3]; first compound 0.06325 µM): 0.0803

UMC-11
relative viability ([1]; first compound 0.003162 µM): 0.972 | relative viability ([1]; first compound 0.01 µM): 1.17 | relative viability ([1]; first compound 0.03162 µM): 0.957 | relative viability ([1]; first compound 0.1 µM): 1.1 | relative viability ([2]; first compound 0.001 µM): 0.499 | relative viability ([2]; first compound 0.003162 µM): 0.945 | relative viability ([2]; first compound 0.01 µM): 1.14 | relative viability ([2]; first compound 0.03162 µM): 0.889 | relative viability ([2]; first compound 0.1 µM): 1.02 | relative viability ([3]; first compound 0.002 µM): 0.465 | relative viability ([3]; first compound 0.006325 µM): 0.499 | relative viability ([3]; first compound 0.02 µM): 0.514 | relative viability ([3]; first compound 0.06325 µM): 0.465

From the supplement of paper PMC10307832
